Reference: paper PMC10451623 (Antioxidants, 2023)

Experiments:
human PPARα = target: T1, human PPARα (Homo sapiens, UniProt Q07869); experiment: Transactivation assay (GAL4–hPPARα-LBD chimera, luciferase reporter, COS-7 cells); format: cell-based; conditions: for Emax: 100% = 1 µM GW7647, read-out: Efficacy, PPARα transactivation (% of the maximal response); for EC50: GAL4–hPPARα-LBD
T1 construct: expressed in transfected cells; host or cells: COS-7
T1 sequence (Q07869 239-466 limits assumed): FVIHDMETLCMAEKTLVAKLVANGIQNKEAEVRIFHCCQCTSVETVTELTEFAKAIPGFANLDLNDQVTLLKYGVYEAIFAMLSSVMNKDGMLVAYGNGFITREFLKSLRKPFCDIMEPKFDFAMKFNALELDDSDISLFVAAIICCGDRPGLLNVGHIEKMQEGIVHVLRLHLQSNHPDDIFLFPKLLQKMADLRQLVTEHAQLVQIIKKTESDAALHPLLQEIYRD
Method: The pSG5-GAL–hPPARα/δ/γ plasmids express fusion proteins comprising the yeast transcription factor GAL4 DNA-binding domain and each of the human PPARα/δ/γ-LBDs. The MH100(UAS)×4-tk-Luc plasmid contains four copies of the MH100 GAL4 binding site and the Firefly luciferase gene. The cells were transfected with those plasmids and were treated with various PPAR ligands, and both Firefly and Renilla luciferase activities were measured using the Dual-Glo Luciferase Assay System (Promega, Madison, WI, USA) as described previously. […] GW1929 was purchased from Sigma-Aldrich (St. Louis, MO, USA).
For the undertaking of the comparison of the potency, efficacy, and selectivity of the five PPAR ligands (Figure 1A) against the PPAR subtypes, we evaluated their PPARα/δ/γ activation using three different methods: a cell-based transactivation assay, a coactivator recruitment assay, and a thermal stability assay, as we previously performed on three fibrates (namely, bezafibrate, fenofibric acid, and pemafibrate). The cell-based transactivation assay utilizing the Gal4–PPAR-LBD system is the most widely used method for the determination of PPAR activation by certain ligands, although their responses depend on the used cell types in which several coactivators with altered functions are differentially expressed.
Figure 1 LBD-mediated human PPARα/δ/γ transactivation by PPAR ligands. (A) Chemical structures of the five PPAR ligands used in this study. […] Data are presented as the mean ± standard error (SE) of three independent experiments with duplicate samples.

PPARδ-LBD = target: T2, PPARδ-LBD (Homo sapiens, UniProt Q03181); experiment: Thermal stability assay using circular dichroism spectroscopy; format: binding; design: PPARδ-LBD (amino acids 170–441); His tag (pET28a) (N); made in house; host or cells: Rosetta (DE3) pLysS (E. coli); conditions: CD at 222 nm; 10 µM LBD; GW501516 at 50 µM
T2 sequence (Q03181 170-441): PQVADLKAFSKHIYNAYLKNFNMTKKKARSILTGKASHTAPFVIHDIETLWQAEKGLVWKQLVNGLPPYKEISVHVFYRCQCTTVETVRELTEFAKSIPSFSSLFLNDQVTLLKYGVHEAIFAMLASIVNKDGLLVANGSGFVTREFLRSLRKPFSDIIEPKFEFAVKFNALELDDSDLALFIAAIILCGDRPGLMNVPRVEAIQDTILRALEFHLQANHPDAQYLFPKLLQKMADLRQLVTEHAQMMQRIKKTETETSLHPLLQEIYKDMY
Method: (§1) PPARα/δ/γ-LBD proteins (10 µM) were incubated with different concentrations of ligands in buffer C consisting of 20 mM Tris-HCl (pH 8.0), 150 mM NaCl, 1 mM Tris 2-carboxyethylphosphine (TCEP)-HCl, and 10% glycerol. The circular dichroism (CD) spectra were monitored within a 200–260 nm range at increasing temperatures from 30 °C to 70 °C (2 °C/min) using a J-1500 spectropolarimeter equipped with a PTC-510 thermal controller (JASCO, Tokyo, Japan). […] The ligand-induced increases in the Tm values were defined as ∆Tm.
(§2) Nuclear receptors, including PPARs, display an increased thermal stability upon ligand binding, which is detectable through CD spectroscopy.
(§3) Figure 3 Circular dichroism-based PPARα/δ/γ-LBD thermal stability assay. […] Data are presented as the mean ± SE of three or four (in parentheses) independent experiments. Differences vs. basal levels (with 0.1% DMSO) were statistically assessed by one-way ANOVA, followed by a Dunnett’s post hoc test: * p < 0.05, ** p < 0.01, and *** p < 0.001.

PPARγ-LBD = target: T3, PPARγ-LBD (Homo sapiens, UniProt P37231); experiment: as above; format: binding; design: PPARγ-LBD (amino acids 203–477 in isoform 1); His tag (pET28a) (N); made in house; host or cells: Rosetta (DE3) pLysS (E. coli); conditions: CD at 222 nm, 10 µM LBD; for Effect on Tm of PPARγ-LBD (in words): GW1929 at 10 µM
T3 sequence (P37231 203-477 isoform P37231-2): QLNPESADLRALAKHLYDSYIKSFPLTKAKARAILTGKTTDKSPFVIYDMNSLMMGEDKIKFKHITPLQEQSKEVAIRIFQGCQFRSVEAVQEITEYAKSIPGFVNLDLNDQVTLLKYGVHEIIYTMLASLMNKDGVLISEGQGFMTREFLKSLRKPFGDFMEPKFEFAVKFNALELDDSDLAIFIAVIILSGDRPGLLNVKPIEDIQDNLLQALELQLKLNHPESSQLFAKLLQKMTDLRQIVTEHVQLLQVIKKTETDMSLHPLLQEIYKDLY
Method: as §1, §2, §3

Emax (human PPARα) [%]	EC50 (human PPARα) [nM]	Effect on Tm of PPARδ-LBD (in words) (PPARδ-LBD)	Effect on Tm of PPARγ-LBD (in words) (PPARγ-LBD)	Relative ∆Tm response, PPARγ-LBD (highest value) (PPARγ-LBD; 100% = ∆Tm by 10 µM GW1929) [%]	SMILES
13.3	4660	increased the Tm values	increased the Tm values	61.4	O=C(O)CCCc1cc2cc(Cl)ccc2n1S(=O)(=O)c1ccc2ncsc2c1 [lanifibranor]
56.4	190	highly increased the Tm values	highly increased the Tm values	–	CCO[C@@H](Cc1ccc(OCCn2c(C)ccc2-c2ccc(SC)cc2)cc1)C(=O)O [saroglitazar]
41	1640	increased the Tm values	increased the Tm values	–	CCO[C@H](COc1ccc(C(F)(F)F)cc1)CSc1ccc(OCC(=O)O)c(C)c1 [seladelpar]

SMILES	Emax (human PPARα) [%]	EC50 (human PPARα) [nM]	Effect on Tm of PPARδ-LBD (in words) (PPARδ-LBD)	Effect on Tm of PPARγ-LBD (in words) (PPARγ-LBD)	Relative ∆Tm response, PPARγ-LBD (highest value) (PPARγ-LBD; 100% = ∆Tm by 10 µM GW1929) [%]
CSc1ccc(C(=O)/C=C/c2cc(C)c(OC(C)(C)C(=O)O)c(C)c2)cc1 [elafibranor]	38.5	388	did not significantly alter the Tm values	did not significantly alter the Tm values	–
